{"source": "patent US20250017964A1", "about": "“ENGINEERING OR INDUCING PDGF AND/OR PDGFR SIGNALING TO ENHANCE NK CELL THERAPY” (City of Hope, priority 2021, published 2025)", "system": "PDGFRβ", "assay": "PDGFRβ localisation: immunofluorescence and immunoblot of cell fractions", "type": "cell-based, human", "description": "FIGS. 1A-1J. IL-15 induces PDGFRβ expression in human NK cells. (A-C) NK cells were purified from PBMCs of healthy donors and stimulated with IL-15 (10 ng/ml) for 24 h. Expression levels of PDGFRα and PDGFRβ were examined by flow cytometry. Data shown are representative dot plots (A), percentages (B), and mean fluorescence intensity (MFI) of PDGFRβ in NK cells (C) (n=20). Resting NK cells were used as the control. (D-E) NK cells were treated with various doses of IL-15 for 24 h (D) or with the same dose of IL-15 (10 ng/ml) at the indicated times (E). Data shown are the percentages of PDGFRβ^+ NK cells among total NK cells (n=5). (F) Immunofluorescence analysis of PDGFRβ expression on resting and IL-15-treated NK cells. Sodium-potassium ATPase was used as a cell membrane marker. Bar=20 μm. (G) Expression of PDGFRβ in the cytoplasmic, nuclear, and cell membrane fractions of NK cells determined by immunoblotting. […] Expression levels of PDGFRβ were then determined by flow cytometry. […]\nRNA was isolated using an RNeasy Mini Kit (QIAGEN) and reversely transcribed to cDNA with a PrimeScript RT Reagent Kit with gDNA Eraser (Takara Bio) according to the manufacturer's protocol. mRNA expression levels were analyzed using SYBR Green qPCR Master Mix and a QuantStudio 12K Flex Real-Time PCR System (both from Thermo Fisher Scientific). […]", "data": [{"substance": "IL-15: recombinant human IL-15 (200-15); recombinant murine IL-15 in the mouse NK cell test", "values": [{"measurement": "PDGFRβ localisation by immunofluorescence", "setting": "IL-15-treated versus resting NK cells", "result": "expressed on the membrane"}, {"measurement": "PDGFRβ in cytoplasmic, nuclear and cell membrane fractions by immunoblotting", "setting": "after stimulation by IL-15", "result": "enriched in the cytoplasm and translocated to the cell membrane"}]}]}
